{
  "source": "patent US6458593B1",
  "about": "“Immortalized cell lines and methods of making the same” (Vitro Diagnostics, Inc., priority 1999, dated 2002)",
  "type_in_all_cases": "cell-based",
  "key": {"[1]": {"test_system": "primary cultured human pituitary cells", "experiment": "Pituitary hormone secretion from primary cultures of panned human pituitary cells", "design": "key to Effect on LH secretion / Effect on PRL secretion / Effect on FSH secretion / Effect on GH secretion: NE: no effect detected; +: stimulatory; −: inhibitory", "details": "for Optimum condition (concentration) for GH secretion / Optimum condition (concentration) for FSH secretion / Optimum condition (concentration) for PRL secretion / Optimum condition (concentration) for LH secretion: Gc medium", "procedure": "Fetal human pituitary glands were obtained from Anatomical Gift Foundation (White Oak, Ga.) or Advanced Bioscience Resources, (Alameda, Calif.). Pituitary glands were stored in approximately 20 mls of RPMI culture media at 4° C. and processed within 24 hours of dissection. The gestational age ranged from 19 to 24 weeks. The following dispersion procedure was performed using sterile materials and technique throughout. Tissue was rinsed in 30 mls modified Kreb's Ringer solution, supplemented with 5 g/L bovine serum albumin (BSA) and nonessential amino acids. The tissue was then transferred to a glass microscope slide, and finely minced using scapels. Minced tissue was suspended in 2 to 2.25 mls modified Kreb's Ringer containing 1 mg/ml collagenase (Sigma Chemical Co., St. Louis, Mo.). The mixture was incubated at 37° C. with rotation at 250 rpm for 60 minutes. The dispersed cells were washed in 20 mls DMEM/F12 medium and centrifuged (5 minutes at 428×g). The supernatant was aspirated leaving 2-4 mls, and two additional washes were performed using 10 mls DMEM/F12. Cells were counted using a hemacytometer (Fresney, I R, 1987). The total number of cells ranged from 100,000 to 2 million per gland, with greater cell numbers in older pituitary glands. The mixture was centrifuged (5 minutes at 428×g). The pellet was then resuspended in culture media, as described below, at approximately 10^5 cells/ml and plated into multi-well, styrene tissue culture plates, incubated at 37° C. in humidified air supplemented with 5% CO2.\nPrimary culture conditions necessary for the proliferation of endocrine cells of the pituitary gland were investigated. The present invention requires cellular proliferation of target cells for integration of foreign DNA into the host cell genome and induction of immortalization. The pituitary gland is composed of numerous cell types including fibroblasts, follicular stellate cells, endocrine epithelial cells (gonadotropes, thyrotropes, somatotropes, lactotropes, melanotropes, corticotropes) and endothelial cells from blood vessels. Since the hormone-producing endocrine cells are one target of the present invention, we investigated methods to enrich the population of endocrine cells. […] Primary cultures were panned by initially plating the dispersed pituicytes in a single 35 mm tissue culture dish at about 5×10^4 cells/ml. After 16-24 hours, less adherent cells were removed from these cultures by repetitive pipetting of media (approximately 10 times). These cells were pelleted by centrifugation (5 minutes at 428×g) and replated at 10^5 cells/ml.\nTo monitor the viability and/or secretory capability of the hormone-producing endocrine cells, we measured secretion of pituitary hormones from cultures of panned pituitary cells. The level of FSH, LH, prolactin and TSH in culture media was determined using an automated chemiluminescent-based immunoanalyzer, ACS: 180™ (Chiron Diagnostics, Inc., Norwood, Mass.). Growth hormone was determined using an immunoradiometric assay (Nichols Institute, San Juan Capistrano, Calif.). Culture media was harvested on Mondays and Fridays from growing cultures for several weeks. These cultures were maintained in 48-well plates (Falcon/Becton Dickinson, Franklin Lakes, N.J.), with each well containing 1 ml of media. The majority of the media were carefully removed to avoid uptake of cells and transferred to 12×75 mm tubes for analysis. Cells were fed with an equal volume of fresh medium at the same time points. Background levels of GH in various media were insignificant (<0.1 ng/ml). Each condition was tested in duplicate and graphed values are the mean hormone concentration +/− standard deviation.\nSimilar types of experiments were done to optimize cell culture conditions and components for secretion of GH, FSH, LH, and prolactin from primary cultured human pituitary cells. […]"}, "[2]": {"test_system": "primary pituitary cultures", "experiment": "G418 selection: killing of non-transfected human pituitary cells", "procedure": "Dispersed and panned cells human pituitary cells were plated at 200,000 to 300,000 cells per ml in 6-well plates (Falcon/Becton Dickinson, Franklin Lakes, N.J.) and grown until 30-50% confluent. Transfection was performed using cationic lipids to deliver plasmids containing either the SV40 large T antigen or the v-myc oncogene into primary-cultured pituitary cells. Plasmids without oncogenes were used as controls for transfection. Wells transfected with control plasmid slightly outlived primary cell cultures due to the presence of the gene coding for G418 resistance but died after 2 to 3 weeks or a single passage of the cells. Using Lipfectin®, we transfected panned pituitary cells with either pSV3neo (Southern, P J and Berg, P J, 1982) or pLXSN-v-myc, constructed as described below. The concentration of DNA was kept constant (typically […]) in each well while the amount of cationic lipid increased from 0-20 μl. […] The formation of colonies in the presence of G418 was monitored for a varying number of weeks.\nPrimary cultured human pituitary cells transfected with pSV3neo were incubated for an additional 48 to 60 hours in Gc medium with 10^−10 M estradiol and nonessential amino acids before G418 selection. […] Medium was replaced every 3 to 4 days and the formation of individual colonies was monitored visually. […]"}, "[3]": {"test_system": "immortalized bovine pituitary cells", "experiment": "Bovine GH secretion into conditioned media (immunoblot)", "details": "10 μM, 3 hours in media without FBS, passage 2-10", "procedure": "Additional experiments were performed using highly sensitive immunological methods to detect bovine growth hormone within live, individual cells in the immortalized cultures. Bovine GH-specific monoclonal antibodies were obtained from Biogenesis, Inc. (Catalog No. 4750-0939) and OEM Concepts (Toms River, N.J.). […] A cellular blotting method was used to monitor bovine GH secretion from pituitary cells grown in culture, as described by Gibson-D'Ambrosio, et al. (1995). By localizing bovine GH within cultures, it was possible to obtain enriched cultures of bovine somatotropes prior to transfection with pSV3neo. […] These cell lines are indicated in Table 2 with the designation bGH, e.g., bGH C5.\nTo test for secretion of bovine GH from immortalized bovine cell line, cultures of passage 2-10 were grown to confluence in FBS-containing media, washed three times with PBS and incubated for 3 hours in media without FBS. Duplicate wells contained 10 μM bovine growth hormone releasing factor (GHRF)."}, "[4]": {"details": "primary human pituitary cultures"}, "[5]": {"details": "initial treatment, in the presence of cortisone and estrogen"}},
  "note": "No end group written: not given here.",
  "data": [
    {"compound": "FGF-basic: basic fibroblast growth factor, growth factor addition to the medium", "values": [
      {"measurement": "Effect on GH release", "setting": "[1]; 0.1 ng/ml, preliminary evidence", "value": "potentiates"},
      {"measurement": "Effect on FSH secretion", "setting": "[1]; [4]", "value": "NE"},
      {"measurement": "Effect on LH secretion", "setting": "[1]; [4]", "value": "NE"},
      {"measurement": "Effect on PRL secretion", "setting": "[1]; [4]", "value": "NE"},
      {"measurement": "Optimum condition (concentration) for GH secretion", "setting": "[1]; [4]", "value": 0.1, "unit": "ng/mL"}
    ]},
    {"compound": "CN[C@@H]1[C@@H](O)[C@@H](O[C@@H]2[C@@H](O)[C@H](O[C@H]3O[C@H]([C@@H](C)O)[C@@H](O)[C@H](O)[C@H]3N)[C@@H](N)C[C@H]2N)OC[C@]1(C)O", "note": "[G418]", "values": [
      {"measurement": "Non-transfected cells killed", "setting": "[2]; 250 μg/ml, final dose", "value": 100, "unit": "%"},
      {"measurement": "Concentration sufficient to kill all primary pituitary cultures tested", "setting": "[2]; human primary pituitary cultures", "value": 150, "unit": "µg/mL"}
    ]},
    {"compound": "GHRF: bovine growth hormone releasing factor (YADAIFTNSYRKVLGQLSARKLLQDIMNRQQGERNQEQGAKVRL; ends and bridges not checked; UniProt P63292 31-74, looked up)", "values": [
      {"measurement": "Effect on amount of bovine GH secreted", "setting": "[3]", "value": "appeared to be potentiated"}
    ]},
    {"compound": "C[C@]12CCC(=O)C=C1CC[C@@H]1[C@@H]2[C@@H](O)C[C@@]2(C)[C@H]1CC[C@]2(O)C(=O)CO", "note": "[Hydrocortisone]", "values": [
      {"measurement": "Effect on LH secretion", "setting": "[1]; [4]", "value": "NE"},
      {"measurement": "Effect on PRL secretion", "setting": "[1]; [4]", "value": "NE"},
      {"measurement": "Optimum condition (concentration) for FSH secretion", "setting": "[1]; [4]", "value": "5e-08", "unit": "M"},
      {"measurement": "Optimum condition (concentration) for GH secretion", "setting": "[1]; [4]", "value": 50000, "unit": "pM"}
    ]},
    {"compound": "C[C@]12CC[C@@H]3c4ccc(O)cc4CC[C@H]3[C@@H]1CC[C@@H]2O", "note": "[17β-Estradiol]", "values": [
      {"measurement": "Effect on GH secretion", "setting": "[1]; 10^−10 M in medium, previous experiments", "value": "stimulatory effect"},
      {"measurement": "Effect on FSH secretion", "setting": "[1]; [4]", "value": "NE"},
      {"measurement": "Effect on LH secretion", "setting": "[1]; [4]", "value": "NE"},
      {"measurement": "Optimum condition (concentration) for GH secretion", "setting": "[1]; [4]", "value": 100, "unit": "pM"},
      {"measurement": "Optimum condition (concentration) for PRL secretion", "setting": "[1]; [4]", "value": 100, "unit": "pM"}
    ]},
    {"compound": "GnRH: gonadotropin releasing hormone, a hypothalamic releasing hormone (QHWSYGLRPG; ends and bridges not checked; UniProt P01148 24-33, looked up)", "values": [
      {"measurement": "Effect on FSH secretion", "setting": "[1]; [5]", "value": "significantly potentiated"},
      {"measurement": "Effect on LH secretion", "setting": "[1]; [5]", "value": "significantly potentiated"},
      {"measurement": "Effect on GH secretion", "setting": "[1]; [4]", "value": "NE"},
      {"measurement": "Effect on PRL secretion", "setting": "[1]; [4]", "value": "NE"},
      {"measurement": "Optimum condition (concentration) for FSH secretion", "setting": "[1]; [4]", "value": "10^−10 M"},
      {"measurement": "Optimum condition (concentration) for LH secretion", "setting": "[1]; [4]", "value": "10^−7 to 10^−10M"}
    ]},
    {"compound": "N[C@@H](Cc1cc(I)c(Oc2ccc(O)c(I)c2)c(I)c1)C(=O)O", "note": "[T3, 3,5,3′ triiodothyronine]", "values": [
      {"measurement": "Effect on TSH release", "setting": "[1]; 10^−10 M", "value": "strongly inhibitory"},
      {"measurement": "Effect on secretion of GH", "setting": "[1]; 10^−10 M", "value": "beneficial"},
      {"measurement": "Effect on secretion of LH", "setting": "[1]; 10^−10 M", "value": "beneficial"},
      {"measurement": "Effect on secretion of prolactin", "setting": "[1]; 10^−10 M", "value": "beneficial"},
      {"measurement": "Effect on FSH secretion", "setting": "[1]; [4]", "value": "NE"},
      {"measurement": "Optimum condition (concentration) for GH secretion", "setting": "[1]; [4]", "value": 100, "unit": "pM"},
      {"measurement": "Optimum condition (concentration) for LH secretion", "setting": "[1]; [4]", "value": "1e-10", "unit": "M"},
      {"measurement": "Optimum condition (concentration) for PRL secretion", "setting": "[1]; [4]", "value": 100, "unit": "pM"}
    ]}
  ]
}
